Data from patent publication US11267815B2, “Class of amino-substituted nitrogen-containing fused ring compounds, preparation method therefor, and use thereof” (SHANGHAI RINGENE BIOPHARMA CO., LTD., priority 2017, dated 2022).
Like-named read-outs stand apart in the source and are kept apart here.

How the values were obtained:
FGFR1 = FGFR1 (Homo sapiens (Human), UniProt P11362); test: Inhibitory activity on kinase FGFR1 (Caliper mobility shift); format: biochemical; conditions: read-out: FGFR1 IC50
Procedure: (§1) (1). Preparation of 1×Kinase buffer; (2) Preparation of the gradient concentrations of the compounds: the concentration of the compounds to be tested started from 10 μM, which was 3-fold diluted to prepare 10 dilutions, and then tested in duplicated wells. The compounds were 100-fold serially diluted into 10 dilutions with different final concentrations in 96-well plates, each of which was further diluted with 1×Kinase buffer to prepare an intermediate dilution having a concentration of 5 times the final concentration; (3) adding 5 μL of each of the prepared compound solution into the compound wells of 384-well plates, and each concentration set single well; adding 5 μL of 5% DMSO into negative control wells and positive control wells respectively; (4) preparing a kinase solution having a concentration of 2.5 times the final concentration with 1×kinase buffer; (5) adding 10 μL of kinase solution at a concentration of 2.5 times the final concentration into the compound wells and the positive control wells respectively; and adding 10 μL of 1×Kinase buffer into the negative control wells; (6) centrifuging at 1000 rpm for 30 seconds, and incubating at room temperature for 10 minutes after shaking and mixing evenly; (7) preparing a mixed solution of ATP and Kinase substrate 22 having a concentration of 2.5 times the final concentration with 1×Kinase Buffer; (8) adding 10 μL of the mixed solution of ATP and substrate at a concentration of 2.5 times the final concentration to initiate the reaction; (9) Centrifuging the 384-well plates at 1000 rpm for 30 seconds, and incubating at 28° C. for corresponding time respectively after shaking and mixing; (10) adding 30 μL of stop detection solution to stop the kinase reaction, centrifuging at 1000 rpm for 30 seconds, and shaking and mixing the mixture evenly; (11) reading the conversion rate by Caliper Ezreader II. The dose-effect curve was fitted by the log (inhibitor) vs. response-variable slope of GraphPad Prism 5 with the log value of concentration as the X axis and the percentage inhibition rate as the Y axis, then the IC50 value of each compound on the enzyme activity was obtained.

FGFR4 = FGFR4 (Homo sapiens (Human), UniProt P22455); test: Inhibitory activity on kinase FGFR4 (Caliper mobility shift); format: biochemical; conditions: read-out: FGFR4 IC50
Procedure: as §1

Hep3B cells = test: Hep3B cell proliferation (CellTiter-Glo, 72 hours); format: cell-based; conditions: read-out: Hep3B IC50
Procedure: 1. Test method: inoculating Hep3B cells (ATCC) in logarithmic growth phase at an appropriate density in a 96-well culture plate, with 100 μL per well. After overnight culture, different concentrations of compounds were added to stay for 72 hours, and menstruum control group (negative control) was set, and the incubation was performed under the condition of 5% CO2 at 37° C. Adding 10 mM compound stock solution to the cells, after the cells were incubated with the compounds for 72 hours, the effects of the compounds on cell proliferation were determined by CellTiter-Glo (Promega) method. 30 μL CTG reagent was added to each well and the resulting mixtures were placed in a 37° C. incubator for 2-4 hours. Then the plate was read by a full-wavelength microplate enzyme reader Envision at a […].
The inhibition rates (%) of the compounds on tumor cell growth were calculated by the following formula: inhibition rate (%)=(OD negative control well−OD administration well)/OD negative control well×100%. IC50 values were obtained by four parameters regression using Graphpad Prism 5 software.

Chain of FGFR1 (P11362 22-822): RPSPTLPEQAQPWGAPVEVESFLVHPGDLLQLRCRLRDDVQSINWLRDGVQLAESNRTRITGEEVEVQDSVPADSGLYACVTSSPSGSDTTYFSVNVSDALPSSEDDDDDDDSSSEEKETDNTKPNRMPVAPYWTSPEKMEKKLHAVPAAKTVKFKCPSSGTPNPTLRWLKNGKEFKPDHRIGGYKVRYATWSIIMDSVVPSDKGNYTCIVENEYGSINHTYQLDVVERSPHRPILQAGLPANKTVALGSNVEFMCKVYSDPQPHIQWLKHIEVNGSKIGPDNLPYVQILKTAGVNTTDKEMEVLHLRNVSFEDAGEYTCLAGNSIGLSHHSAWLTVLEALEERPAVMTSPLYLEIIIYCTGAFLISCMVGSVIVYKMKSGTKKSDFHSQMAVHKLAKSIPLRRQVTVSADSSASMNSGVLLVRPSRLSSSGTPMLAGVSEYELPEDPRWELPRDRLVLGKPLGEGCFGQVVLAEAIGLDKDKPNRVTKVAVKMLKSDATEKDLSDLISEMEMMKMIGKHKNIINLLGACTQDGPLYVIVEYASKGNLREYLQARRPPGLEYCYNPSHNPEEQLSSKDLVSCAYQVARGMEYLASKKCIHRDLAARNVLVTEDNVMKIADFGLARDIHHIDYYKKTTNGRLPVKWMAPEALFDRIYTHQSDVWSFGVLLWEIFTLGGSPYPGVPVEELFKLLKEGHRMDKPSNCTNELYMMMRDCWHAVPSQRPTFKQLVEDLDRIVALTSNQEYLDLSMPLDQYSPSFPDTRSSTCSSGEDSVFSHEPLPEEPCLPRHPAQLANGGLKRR
Chain of FGFR4 (P22455 22-802): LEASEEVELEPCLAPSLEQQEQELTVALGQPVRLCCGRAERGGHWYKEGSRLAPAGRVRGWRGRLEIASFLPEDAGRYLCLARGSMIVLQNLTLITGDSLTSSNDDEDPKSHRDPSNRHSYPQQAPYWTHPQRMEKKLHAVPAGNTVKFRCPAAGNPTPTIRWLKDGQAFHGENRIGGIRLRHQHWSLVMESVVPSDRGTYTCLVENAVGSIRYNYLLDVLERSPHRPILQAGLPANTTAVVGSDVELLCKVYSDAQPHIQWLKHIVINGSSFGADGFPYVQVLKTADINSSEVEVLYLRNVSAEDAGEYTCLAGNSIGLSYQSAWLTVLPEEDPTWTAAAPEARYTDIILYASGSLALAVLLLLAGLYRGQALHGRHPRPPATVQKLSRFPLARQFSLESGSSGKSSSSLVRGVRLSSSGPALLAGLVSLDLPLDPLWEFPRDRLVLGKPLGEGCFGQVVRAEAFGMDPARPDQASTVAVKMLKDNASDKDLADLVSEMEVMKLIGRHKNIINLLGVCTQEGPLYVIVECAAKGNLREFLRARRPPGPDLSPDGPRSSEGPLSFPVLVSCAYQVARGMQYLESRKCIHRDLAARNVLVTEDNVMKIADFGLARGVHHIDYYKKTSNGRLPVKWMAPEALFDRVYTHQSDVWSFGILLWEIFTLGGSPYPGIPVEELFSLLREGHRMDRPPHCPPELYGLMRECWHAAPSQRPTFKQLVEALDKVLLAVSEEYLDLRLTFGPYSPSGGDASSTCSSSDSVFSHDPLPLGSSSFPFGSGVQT

| SMILES | IC50 (FGFR1) | IC50 (FGFR4) | IC50 (Hep3B cells; Homo sapiens, Hep3B) | IC50 (Hep3B cells) |
| --- | --- | --- | --- | --- |
| C=CC(=O)N1CCN(CCCc2cn3c(n2)c(-c2c(F)c(OC)cc(OC)c2F)cc2cnc(NC)nc23)CC1 [Embodiment 1] | < 20 nM | < 20 nM | < 20 nM | – |
| C=CC(=O)N1CCN(CCCc2cn3c(n2)c(-c2c(F)c(OC)cc(OC)c2F)cc2cnc(NC)cc23)CC1 [Embodiment 2] | < 20 nM | < 20 nM | < 20 nM | – |
| C=CC(=O)N1CCN(CCCc2cn3c(n2)c(-c2c(Cl)c(OC)cc(OC)c2Cl)cc2cnc(NCC4CC4)nc23)CC1 [Embodiment 4] | < 20 nM | < 20 nM | < 20 nM | – |
| C=CC(=O)N1CCN(CCCc2cn3c(n2)c(-c2c(Cl)c(OC)cc(OC)c2Cl)cc2cnc(NC)cc23)CC1 [Embodiment 5] | < 20 nM | < 20 nM | < 20 nM | – |
| C=CC(=O)N1CCN(CCCc2cn3c(n2)c(-c2c(Cl)c(OC)cc(OC)c2Cl)cc2cnc(NCCOC)nc23)CC1 [Embodiment 6, 1-(4-(3-(6-(2,6-dichloro-3,5-dimethoxyaniline)-2-((2-methoxyethyl)amino)imidazo[1′,2′:1,6]pyrido[2,3-d]pyrimidin-8-yl)propyl)piperazine-1-yl)prop-2-en-1-one] | < 20 nM | < 20 nM | < 20 nM | – |
| C=CC(=O)N1CCN(CCCc2cn3c(n2)c(-c2c(Cl)c(OC)cc(OC)c2Cl)cc2cnc(NCCN4CCN(C)CC4)nc23)CC1 [Embodiment 7, 1-(4-(3-(6-(2,6-dichloro-3,5-dimethoxyaniline)-2-((2-(4-methylpiperazine-1-yl)ethylethyl)amino)imidazo[1′,2′:1,6]pyrido[2,3-d]pyrimidin-8-yl)propyl)piperazine-1-yl)prop-2-en-1-one] | < 20 nM | < 20 nM | 20 to 200 nM | – |
| C=CC(=O)N1CCN(CCCc2cn3c(n2)c(-c2c(Cl)c(OC)cc(OC)c2Cl)cc2cnc(NCC)nc23)CC1 [Embodiment 8] | < 20 nM | < 20 nM | < 20 nM | – |
| C=CC(=O)N1CCN(CCCc2cn3c(n2)c(-c2c(Cl)c(OC)cc(OC)c2Cl)cc2cnc(NCCN(C)C)nc23)CC1 [Embodiment 9] | < 20 nM | < 20 nM | 20 to 200 nM | – |
| C=CC(=O)N1CCN(CCCc2cn3c(n2)c(-c2c(Cl)c(OC)cc(OC)c2Cl)cc2cnc(NCC(O)CO)nc23)CC1 (stereo not drawn) [Embodiment 10] | < 20 nM | < 20 nM | 20 to 200 nM | – |
| C=CC(=O)N1CCN(CCCc2cn3c(n2)c(-c2c(Cl)c(OC)cc(OC)c2Cl)cc2cnc(NCC4CCOC4)nc23)CC1 (stereo not drawn) [Embodiment 11] | < 20 nM | < 20 nM | 20 to 200 nM | – |
| C=CC(=O)N1CCN(CCCc2cn3c(n2)c(-c2c(Cl)c(OC)cc(OC)c2Cl)cc2cnc(NCC(C)(C)O)nc23)CC1 [Embodiment 12] | < 20 nM | < 20 nM | 20 to 200 nM | – |
| C=CC(=O)N1CCN(CCCc2cn3c(n2)c(-c2c(Cl)c(OC)cc(OC)c2Cl)cc2cnc(NCCC#N)nc23)CC1 [Embodiment 13] | < 20 nM | < 20 nM | 20 to 200 nM | – |
| C=CC(=O)N1CCN(CCCc2cn3c(n2)c(-c2c(Cl)c(OC)cc(OC)c2Cl)cc2cnc(NC)nc23)CC1(C)C [Embodiment 14] | < 20 nM | 20 to 200 nM | 20 to 200 nM | – |
| C=CC(=O)N1CCN(CC(C)(C)Cc2cn3c(n2)c(-c2c(Cl)c(OC)cc(OC)c2Cl)cc2cnc(NC)nc23)CC1 [Embodiment 15, 1-(4-(3-(6-(2,6-dichloro-3,5-dimethoxyaniline)-2-(methylamine)imidazo[1′,2′:1,6]pyrido[2,3-d]pyrimidin-8-yl)-2,2-dimethylpropyl)piperazine-1-yl)prop-2-en-1-one] | < 20 nM | 20 to 200 nM | 20 to 200 nM | – |
| C=CC(=O)N1CCN(Cc2cn3c(n2)c(-c2c(Cl)c(OC)cc(OC)c2Cl)cc2cnc(NC)nc23)CC1 [Embodiment 16, 1-(4-((6-(2,6-dichloro-3,5-phenyldimethoxyphenyl)-2-(methylamine)imidazo[1′,2′:1,6]pyrido[2,3-d]pyrimidin-8-yl)methyl)piperazine-1-yl)acrylamide] | < 20 nM | > 200 nM | 20 to 200 nM | – |
| C=CC(=O)N1CCN(c2cccc(-c3cn4c(n3)c(-c3c(Cl)c(OC)cc(OC)c3Cl)cc3cnc(NC)nc34)c2)CC1 [Embodiment 18, 1-(4-(3-(6-(2,6-dichloro-3,5-dimethoxyphenyl)-2-(methylamine)imidazo[1′,2′:1,6]pyrido[2,3-d]pyrimidin-8-yl)phenyl)piperazine-1-yl)acrylamide] | < 20 nM | > 200 nM | – | 20 to 200 nM |
| C=CC(=O)NCc1cccc(-c2cn3c(n2)c(-c2c(Cl)c(OC)cc(OC)c2Cl)cc2cnc(NC)nc23)c1 [Embodiment 19, N-(3-(6-(2,6-dichloro-3,5-dimethoxyphenyl)-2-(methylamino)imidazo[1′,2′:1,6]pyrido[2,3-d]pyrimidin-8-yl)benzyl)acrylamide] | < 20 nM | > 200 nM | 20 to 200 nM | – |
